Marks after values point to notes of the source that are not given here.
Key:
Sprague-Dawley rats = assay: Neurodegeneration induced by Kainic acid in rats (hippocampus CA3 neuron damage, seizure behavior scores); format: in vivo, rat; details: oral dosing, Kainic acid injected
Procedure: The compounds and the compositions of this invention are tested in vivo for their ability to alleviate neurodegenerations induced by Kainic acid. See, for example, PCT Pat. App. No. PCT/US2011/050071, supra. A compound or composition of this invention is orally dosed to Sprague-Dawley rats, and Kainic acid is injected. Seizure behaviors are observed and scored (see, e.g., R. J. Racine, Modification of seizure activity by electrical stimulation: II. Motor seizure, Electroencephalogr. Clin. Neurophysiol. 32 (1972) 281-294). Brain tissues of rats are sectioned on histology slides, and neurons in hippocampus tissues are stained by Nissl.
The indicated compounds or vehicle control were orally dosed to Sprague-Dawley rats, and Kainic acid was injected. Seizure behaviors were observed and scored (Ref. R. J. Racine, Modification of seizure activity by electrical stimulation: 11. Motor seizure, Electroencephalogr. Clin. Neurophysiol. 32 (1972) 281-294. Modifications were made for the methods). Brain tissues of rats were sectioned on histology slides, and neurons in hippocampus tissues were stained by Nissl. Neurons damaged by Kainic acid (mean of hippocampus CA3 neurons damaged) and behavior scores (mean of seizure behavior scores) were quantified.

Neuro2A cells = assay: In vitro neuroprotection: Neuro2A cells cultured with GGA derivative with or without GGTI-298, cells that extended neurites counted; format: cell-based, mouse; details: for Activity 1 nm: compound at 1 nm (so in the source); for Activity 1 nm / Activity 1 μM: cells that extended neurites counted, normalized by the activity of CNS-102 (GGA trans-isomer); for Activity 1 μM: compound at 1 μM
Procedure: Neuro2A cells were cultured with a GGA derivative in the presence or absence of an inhibitor against a G-protein (GGTI-298). After differentiation was induced, cells that extended neurites were counted as an activity of the compound. The activities are shown in arbitrary units and were normalized by the activity of CNS-102 (GGA trans-isomer) in each parallel experiments.

HSP70 [1] = assay: Expression of heat shock proteins in vitro (Western blotting of Neuro2A lysates); format: cell-based; details: Mus musculus, N2a, retinoic acid differentiation, GGTI-298, 24 hrs; for fold induction at 0.1 µM: 100 nM, signal in the absence of the compounds normalized as 1, read-out: HSP70 Western signal, Compound Dose 100 nM; for fold induction at 1 µM: signal in the absence of the compounds normalized as 1, read-out: HSP70 Western signal, Compound Dose 1 μM; for fold induction at 10 µM: signal in the absence of the compounds normalized as 1, read-out: HSP70 Western signal, Compound Dose 10 μM
Procedure: Mouse Neuro2A neuroblastoma cells were cultured in DMEM supplemented with 10% FBS for 24 hrs. The cells were treated with various concentrations of the indicated compounds. Then differentiation was induced by retinoic acid in DMEM supplemented with 2% FBS. An inhibitor against a G-protein, GGTI-298, was incubated. After 24 hrs incubation, cells were harvested, and lysates were prepared from the harvested cells. Western blotting analysis was done for the same protein amounts of these lysates, and western signals were detected by chemiluminescence and quantified in parallel with comparisons of those detected in the absence of the compound. Western signals in the absence of the compounds were normalized as 1.

HSP70 [2] = assay: HSP70 protein in rat brain lysates by Western blotting after oral dosing; format: in vivo
Procedure: The compounds tabulated below or vehicle controls were orally dosed at 12 mg/kg to Sprague-Dawley rats. Rat brain tissues were extracted in various time points after the oral dosing. Lysates were prepared from the harvested brain tissues. Western blotting analysis was done for the same protein amounts of these lysates, and western signals of HSP70 were detected by chemiluminescence and quantified in parallel with comparisons of those detected at time 0 hr. Western signals at time 0 hr were normalized as 100.

## CC(=O)CC/C=C(\C)CC/C=C(\C)CC/C=C(\C)CCC=C(C)C [drawing 151]
Sprague-Dawley rats; Vehicle 15.61 in this table
  Mean of Hippocampus CA3 neurons damaged: 9.46 Arbitrary units

## CCC(=O)CC/C=C(\C)CC/C=C(\C)CC/C=C(\C)CCC=C(C)C
Neuro2A cells
  Activity 1 nm: 186 arbitrary units

## CC(C)=CCC/C(C)=C/CC/C(C)=C/CC/C(C)=C/COC(=O)C1CCCCC1 [drawing 169]
HSP70 [1]
  fold induction at 0.1 µM: 2.53
  fold induction at 1 µM: 2.34
  fold induction at 10 µM: 2.53

## CC(C)=CCC/C(C)=C/CC/C(C)=C/CC/C(C)=C/CC1CCCCC1=O (stereo not shown) [drawing 173]
HSP70 [1]
  fold induction at 0.1 µM: 3.85
  fold induction at 1 µM: 3.78
  fold induction at 10 µM: 2.25

## CC(C)=CCC/C(C)=C/CC/C(C)=C/CC/C(C)=C/CC1CCCCC1=O (stereo not shown) [drawing 150]
Sprague-Dawley rats; Vehicle 15.61 in this table
  Mean of Hippocampus CA3 neurons damaged: 2.64 Arbitrary units

## CC(=O)CC/C=C(\C)CC/C=C(\C)CC/C=C(\C)CC/C=C(\C)CCC=C(C)C [drawing 158]
Sprague-Dawley rats; Vehicle 12.71 in this table
  Mean of Hippocampus CA3 neurons damaged: 2.22 Arbitrary units

## CC(C)=CCC/C(C)=C/CC/C(C)=C/CC/C(C)=C/CCC(=O)C(C)(C)C [drawing 161]
Sprague-Dawley rats; Vehicle 12.91 in this table
  Mean of Hippocampus CA3 neurons damaged: 8.08 Arbitrary units

## C/C(=C\CO)CCC=C1CCCCC1
Neuro2A cells; in words, concentration not given
  Activity compared with control experiment with no addition of compound: * Under the conditions tested, this compound was not found to have activity beyond that of the control for this assay.

## CCCCCNC(=O)OC(C)CC/C=C(\C)CC/C=C(\C)CCC=C(C)C (stereo not shown) [drawing 162]
Sprague-Dawley rats; Vehicle 7.09 in this table
  Mean of Hippocampus CA3 neurons damaged: 14.73 Arbitrary units

## CC(C)=CCC/C(C)=C/CC/C(C)=C/CC/C(C)=C/CCC1(C)OCCO1 [drawing 172]
HSP70 [1]
  fold induction at 0.1 µM: 3.16
  fold induction at 1 µM: 3.5
  fold induction at 10 µM: 3.49

## COC(=O)C(NC(=O)OC(C)CC/C=C(\C)CC/C=C(\C)CCC=C(C)C)C(C)C (stereo not shown) [drawing 179]
HSP70 [1]
  fold induction at 0.1 µM: 1.26
  fold induction at 1 µM: 1.07
  fold induction at 10 µM: 1.29

## CC(C)=CCC/C(C)=C/CC/C(C)=C/CC/C(C)=C/COC(=O)C1CCCCC1 [drawing 167]
Sprague-Dawley rats; Vehicle 26.31 in this table
  Mean of Seizure behaviors scores: 18.68 Arbitrary units

## CC(C)=CCC/C(C)=C/CC/C(C)=C/CC/C(C)=C/CC1CCCCC1=O (stereo not shown) [drawing 180]
HSP70 [2]; 12 hr after oral 12 mg/kg, time 0 hr = 100, Vehicle 102%
  Western signal of HSP70 in brain: 116%
HSP70 [2]; 48 hr after oral 12 mg/kg, time 0 hr = 100, Vehicle 105%
  Western signal of HSP70 in brain: 114%
HSP70 [2]; 96 hr after oral 12 mg/kg, time 0 hr = 100, Vehicle 99%
  Western signal of HSP70 in brain: 97%

## CCC(=O)CC/C=C(\CC)CC/C=C(\C)CC/C=C(\C)CCC=C(C)C
HSP70 [1]
  fold induction at 0.1 µM: 1.79
  fold induction at 1 µM: 6.08
  fold induction at 10 µM: 4.76

## CC(C)=CCC/C(C)=C/CC/C(C)=C/CC/C(C)=C/CC/C(C)=C/CCC(=O)C1CC1
Sprague-Dawley rats; Vehicle 6.59 in this table
  Mean of Hippocampus CA3 neurons damaged: 5.98 Arbitrary units

## CC(C)=CCC/C(C)=C/CC/C(C)=C/CCC(C)OC(=O)NCC1CCCCC1 (stereo not shown)
HSP70 [1]
  fold induction at 0.1 µM: 1.55
  fold induction at 1 µM: 1.49
  fold induction at 10 µM: 2.53

## CC(C)=CCC/C(C)=C/CC/C(C)=C/CC/C(C)=C/CCC1(C)OCCO1 [drawing 165]
Sprague-Dawley rats; Vehicle 41.56 in this table
  Mean of Seizure behaviors scores: 16.35 Arbitrary units

## CCOC(=O)C(C/C=C(\C)CC/C=C(\C)CCC=C(C)C)C(C)=O (stereo not shown)
Neuro2A cells
  Activity 1 μM: 259* arbitrary units

## CCO/N=C(\C)CC/C=C(\C)CC/C=C(\C)CC/C=C(\C)CCC=C(C)C
Sprague-Dawley rats; Vehicle 17.59 in this table
  Mean of Hippocampus CA3 neurons damaged: 14.66 Arbitrary units

## CCOC(=O)C(C/C=C(\C)CC/C=C(\C)CC/C=C(\C)CCC=C(C)C)C(C)=O (stereo not shown) [drawing 168]
Sprague-Dawley rats; Vehicle 13.37 in this table
  Mean of Seizure behaviors scores: 3.83 Arbitrary units

## CC(C)=CCC/C(C)=C/CC/C(C)=C/CC/C(C)=C/COC(=O)C1CCCCC1 [drawing 159]
Sprague-Dawley rats; Vehicle 6.59 in this table
  Mean of Hippocampus CA3 neurons damaged: 1.55 Arbitrary units

## CCOC(=O)C=C1CCCCC1
Neuro2A cells
  Activity 1 μM: 240* arbitrary units

## CC/C(=C\CCC(=O)C12CC3CC(CC(C3)C1)C2)CC/C=C(\C)CC/C=C(\C)CCC=C(C)C [drawing 155]
Sprague-Dawley rats; Vehicle 19.95 in this table
  Mean of Hippocampus CA3 neurons damaged: 12.54 Arbitrary units

## CCOC(=O)C(CC=C1CCCCC1)C(C)=O (stereo not shown)
Neuro2A cells
  Activity 1 μM: 162* arbitrary units

## COC(=O)C(NC(=O)OC(C)CC/C=C(\C)CC/C=C(\C)CCC=C(C)C)C(C)C (stereo not shown) [drawing 156]
Sprague-Dawley rats; Vehicle 9.76 in this table
  Mean of Hippocampus CA3 neurons damaged: 6.61 Arbitrary units

## CCOC(=O)C(C/C=C(\C)CC/C=C(\C)CC/C=C(\C)CCC=C(C)C)C(=O)C(C)C (stereo not shown)
Neuro2A cells
  Activity 1 nm: 173 arbitrary units

## CC(=O)CC/C=C(\C)CC/C=C(\C)CC/C=C(\C)CCC=C(C)C [drawing 178]
HSP70 [1]
  fold induction at 0.1 µM: 1.38
  fold induction at 1 µM: 2.05
  fold induction at 10 µM: 2.14

## CCOC(=O)C(C/C=C(\C)CC/C=C(\C)CC/C=C(\C)CCC=C(C)C)C(=O)C12CC3CC(CC(C3)C1)C2 (stereo not shown)
Neuro2A cells
  Activity 1 nm: 145 arbitrary units

## CC(=O)CC/C=C(\C)CC/C=C(\C)CC/C=C(\C)CC/C=C(\C)CCC=C(C)C [drawing 171]
HSP70 [1]
  fold induction at 0.1 µM: 1.92
  fold induction at 1 µM: 2.78
  fold induction at 10 µM: 3.53

## CCOC(=O)C(C/C=C(\C)CC/C=C(\C)CC/C=C(\C)CCC=C(C)C)C(C)=O (stereo not shown) [drawing 153]
Sprague-Dawley rats; Vehicle ~7.74 in this table
  Mean of Hippocampus CA3 neurons damaged: ~5.57 Arbitrary units

## CC(C)=CCC/C(C)=C/CC/C(C)=C/CC/C(C)=C/CC/C(C)=N/OCC(=O)O
Sprague-Dawley rats; Vehicle 26.68 in this table
  Mean of Seizure behaviors scores: 13.37 Arbitrary units

## CCCCCNC(=O)OC(C)CC/C=C(\C)CC/C=C(\C)CCC=C(C)C (stereo not shown) [drawing 170]
HSP70 [1]
  fold induction at 0.1 µM: 1.16
  fold induction at 1 µM: 1.26
  fold induction at 10 µM: 1.93

## CC(=O)CC/C=C(\C)CC/C=C(\C)CCC=C(C)C [drawing 175]
HSP70 [1]
  fold induction at 0.1 µM: 1.87
  fold induction at 1 µM: 5.86
  fold induction at 10 µM: 1.79

## CC(C)=CCC/C(C)=C/CC/C(C)=C/CC/C(C)=C/CCC(=O)C(C)(C)C [drawing 166]
Sprague-Dawley rats; Vehicle 19.75 in this table
  Mean of Seizure behaviors scores: 11.25 Arbitrary units

## CC(C)=CCC/C(C)=C/CC/C(C)=C/CC/C(C)=C/CCC1(C)OCCO1 [drawing 152]
Sprague-Dawley rats; Vehicle 15.31 in this table
  Mean of Hippocampus CA3 neurons damaged: 12.11 Arbitrary units

## CC(=O)CC/C=C(\C)CC/C=C(\C)CCC=C(C)C [drawing 154]
Sprague-Dawley rats; Vehicle 19.95 in this table
  Mean of Hippocampus CA3 neurons damaged: 10.61 Arbitrary units

## CCOC(=O)/C=C(\C)CCC=C1CCCCC1
Neuro2A cells
  Activity 1 μM: 161* arbitrary units

## CC(C)=CCC/C(C)=C/CC/C(C)=C/CC/C(C)=C/C=O
Sprague-Dawley rats; Vehicle 1.72 in this table
  Mean of Hippocampus CA3 neurons damaged: 1.58 Arbitrary units

## CC/C(=C\CCC(=O)C12CC3CC(CC(C3)C1)C2)CC/C=C(\C)CC/C=C(\C)CCC=C(C)C [drawing 177]
HSP70 [1]
  fold induction at 0.1 µM: 1.71
  fold induction at 1 µM: 2
  fold induction at 10 µM: 1

## CC(C)=CCC/C(C)=C/CC/C(C)=C/CC/C(C)=C/CC/C(C)=N/OCc1ccccc1
Neuro2A cells
  Activity 1 μM: 287 arbitrary units

From patent US20130085283A1, “GERANYLGERANYLACETONE DERIVATIVES” (Coyote Pharmaceuticals, Inc., priority 2011, published 2013)
